Test results as given in paper PMC5789083, “Mechanisms driving the antibacterial and antibiofilm properties of Hp1404 and its analogue peptides against multidrug-resistant Pseudomonas aeruginosa” (Scientific Reports, 2018).
Where two headings read alike, the source gives them in different places. Where no end group is shown, it is not given here.

What was measured:
[1] = system: P. aeruginosa strains (biofilm formation); assay type: cell-based, Pseudomonas aeruginosa; settings: 24 h, 37 °C, crystal violet OD595
Method in brief: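 Antibiotic-susceptible (ATCC 27853) and MDR P. aeruginosa grown in nutrient broth ± peptides; biofilms methanol-fixed, stained with 0.1% crystal violet, dissolved in 95% ethanol and read at OD 595 nm. Expressed as percent of control biofilm, at least triplicate.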

[2] = system: Pseudomonas aeruginosa and MRPA strains; assay: microbe, parasite or virus in culture; assay type: cell-based; settings: broth micro-dilution, 37 °C, 18–24 h
Method in brief: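 Peptide dilutions prepared in 10 mM sodium phosphate buffer were combined in equal volume with overnight cultures diluted to 2 × 10^5 CFU/mL (reference strain ATCC 27853 and hospital MDR isolates). After 18–24 h at 37 °C, absorbance at 600 nm defined MIC; triplicate tests.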

P. aeruginosa 27853 = assay type: cell-based, Pseudomonas aeruginosa
Method: We examined the activity of each peptide against both pseudomonas aeruginosa and multidrug-resistant strains. The minimal inhibitory concentrations (MICs) of peptides were determined using the broth micro-dilution assay as described previously. Briefly, bacterial strains were cultivated with shaking overnight at 37 °C. The next day, they were diluted to a density of 2 × 10^5 CFU/mL with growth medium. Peptides were serially diluted with 10 mM sodium phosphate buffer. 50 µL bacterial aliquots were mixed with an equal volume of peptide solution, and incubated at 37 °C for 18–24 h. Inhibition of bacterial growth was determined by measuring the absorbance at 600 nm using a Versa Max microplate reader (Molecular Devices, Sunnyvale, CA, USA). The test was performed in triplicate.
The effects of various cations on the antibacterial activities of the parental and analogue peptides against P. aeruginosa 27853 were evaluated as previously described. Bacteria was treated with peptides at a final concentration 25 µM in the presence of physiological salts such as NaCl (50 mM, 100 mM, and 150 mM), CaCl2 (1.25 mM, 2.5 mM, and 5 mM), or MgCl2 (0.5 mM, 1 mM, and 2 mM). The MIC values were determined as described above.

HaCaT cells = assay: Cytotoxicity, MTT assay; assay type: cell-based, human; settings: 50 µM, 24 h
Method: We used the MTT assay to evaluate the toxicity of the peptides toward human skin epithelial cells (HaCaT) as previously described. Briefly, HaCaT cells were seeded at a density of 2 × 10^4 cells per well in 96-well microtiter plates in Dulbecco’s modified Eagle’s medium (DMEM) containing 10% foetal bovine serum (FBS) at 37 °C under 5% CO2 atmosphere. The next day, peptides were added to each well at various final concentrations (higher concentration of 200 µM). After 24 h incubation, culture supernatants were removed. 0.5 mg/mL MTT was added to each well, and the plates were incubated for 4 h at 37 °C. The medium was replaced by dimethyl sulfoxide (DMSO) to dissolve the formazan crystals formed in the wells. The absorbance at 570 nm was measured using a Versa-Max microplate ELISA reader (Molecular Devices). The viability rate was calculated using the following formula: Cell viability (%) = (absorbance of treated sample)/(absorbance of control) × 100.

[3] = P. aeruginosa 27853, 5 × 10^5 CFU/mL, 0.2% glucose
[4] = P. aeruginosa 138 (multidrug-resistant), triplicate
[5] = P. aeruginosa 431 (multidrug-resistant), triplicate
[6] = P. aeruginosa 434 (multidrug-resistant), triplicate
[7] = P. aeruginosa 557 (multidrug-resistant), triplicate
[8] = P. aeruginosa 559 (multidrug-resistant), triplicate
[9] = P. aeruginosa 778 (multidrug-resistant), triplicate
[10] = P. aeruginosa 1034 (multidrug-resistant), triplicate
[11] = P. aeruginosa 1162 (multidrug-resistant), triplicate
[12] = P. aeruginosa 3290 (multidrug-resistant), triplicate
[13] = P. aeruginosa 3399 (multidrug-resistant), triplicate
[14] = P. aeruginosa 3543 (multidrug-resistant), triplicate
[15] = P. aeruginosa 3592 (multidrug-resistant), triplicate
[16] = P. aeruginosa 3904 (multidrug-resistant), triplicate
[17] = P. aeruginosa 4007 (multidrug-resistant), triplicate
[18] = P. aeruginosa 4319 (multidrug-resistant), triplicate
[19] = P. aeruginosa 4891 (multidrug-resistant), triplicate
[20] = P. aeruginosa 5018 (multidrug-resistant), triplicate
[21] = P. aeruginosa 671973 (multidrug-resistant), triplicate
[22] = P. aeruginosa ATCC 27853, 2 × 10^5 CFU/mL, A600, triplicate

Substance | MBIC ([1]; P. aeruginosa 434) | MBIC ([1]; P. aeruginosa 559) | MBIC ([1]; P. aeruginosa 778) | MBIC ([1]; P. aeruginosa 1034) | MBIC ([1]; P. aeruginosa 1162) | MBIC ([1]; P. aeruginosa 3399) | MBIC ([1]; P. aeruginosa 3543) | MBIC ([1]; P. aeruginosa 4007) | MBIC [1, 3] | MIC [2, 4] | MIC [2, 5] | MIC [2, 6] | MIC [2, 7] | MIC [2, 8] | MIC [2, 9] | MIC [2, 10] | MIC [2, 11] | MIC [2, 12] | MIC [2, 13] | MIC [2, 14] | further results
GILGKLWEGVKSIF-NH2 [Hp1404] | 25 µM | 50 µM | 25 µM | 25 µM | 25 µM | 12.5 µM | 6.25 µM | 25 µM | 25 µM | 12.5 µM | 12.5 µM | 12.5 µM | 6.25 µM | 25 µM | 12.5 µM | 6.25 µM | 12.5 µM | 12.5 µM | 6.25 µM | 6.25 µM | MIC [2, 15]: 6.25 µM; MIC [2, 16]: 6.25 µM; MIC [2, 17]: 25 µM; MIC [2, 18]: 12.5 µM; MIC [2, 19]: 6.25 µM; MIC [2, 20]: 12.5 µM; MIC [2, 21]: 3.13 µM; MIC [2, 22]: 12.5 µM; MIC (P. aeruginosa 27853; CaCl2 1.25 mM): >25 µM; MIC (P. aeruginosa 27853; CaCl2 2.5 mM): >25 µM; MIC (P. aeruginosa 27853; CaCl2 5 mM): >25 µM; MIC (P. aeruginosa 27853; MgCl2 0.5 mM): 25 µM; MIC (P. aeruginosa 27853; MgCl2 1 mM): 25 µM; MIC (P. aeruginosa 27853; MgCl2 2 mM): >25 µM; MIC (P. aeruginosa 27853; NaCl 50 mM): 25 µM; MIC (P. aeruginosa 27853; NaCl 100 mM): >25 µM; MIC (P. aeruginosa 27853; NaCl 150 mM): >25 µM; survival rate of HaCaT cells (HaCaT cells): 30%
ILKKLLKKVKKI-NH2 [Hp1404-T1e] | 12.5 µM | 12.5 µM | 6.25 µM | 6.25 µM | 6.25 µM | 12.5 µM | 50 µM | 12.5 µM | 12.5 µM | 6.25 µM | 3.13 µM | 3.13 µM | 3.13 µM | 6.25 µM | 1.56 µM | 1.56 µM | 1.56 µM | 6.25 µM | 0.78 µM | 12.5 µM | MIC [2, 15]: 1.56 µM; MIC [2, 16]: 3.13 µM; MIC [2, 17]: 3.13 µM; MIC [2, 18]: 3.13 µM; MIC [2, 19]: 1.56 µM; MIC [2, 20]: 1.56 µM; MIC [2, 21]: 1.56 µM; MIC [2, 22]: 1.56 µM; MIC (P. aeruginosa 27853; CaCl2 1.25 mM): 6.25 µM; MIC (P. aeruginosa 27853; CaCl2 2.5 mM): 12.5 µM; MIC (P. aeruginosa 27853; CaCl2 5 mM): >25 µM; MIC (P. aeruginosa 27853; MgCl2 0.5 mM): 3.13 µM; MIC (P. aeruginosa 27853; MgCl2 1 mM): 3.13 µM; MIC (P. aeruginosa 27853; MgCl2 2 mM): 12.5 µM; MIC (P. aeruginosa 27853; NaCl 50 mM): 6.25 µM; MIC (P. aeruginosa 27853; NaCl 100 mM): 6.25 µM; MIC (P. aeruginosa 27853; NaCl 150 mM): 12.5 µM; survival rate of HaCaT cells (HaCaT cells): 100%
